Laboratory results reported in ChEMBL document CHEMBL5550165, “Novel quinoxaline analogs as telomeric G-quadruplex ligands exert antitumor effects related to enhanced immunomodulation” (Eur J Med Chem, 2024).
Calls of active or inactive are those of the source. No cut-off for these calls is given here.

Columns and labels:
[1] = Drug uptake in human MDA-MB-231 cells assessed as increase in fluorescence intensity in tumor spheroid incubated for 24 hrs; assay type: ADME, cell-based; settings: mda-mb-231, 24 h
DNA = assay: Binding affinity to Hairpin DNA (unknown origin) assessed as thermal shift at 10 uM by UV-Visible spectrophotometric analysis; assay type: nucleic-acid assay
4T1 = assay: Antitumor activity against mouse 4T1 cells implanted in BALB/c mouse assessed as upregulation of cleaved PARP expression in tumor at 10 mg/kg,ip every other day for 14 days by Western blot analysis; assay type: functional, organism-based; settings: time 14.0 day
Quadruplex DNA = assay: Stabilization of G-quadruplex telomeric24 DNA (unknown origin) at 10 uM incubated for 40 mins by replication based ethidium bromide staining based gel electrophoresis; assay type: nucleic-acid assay
MDA-MB-231 = assay: Induction of DNA damage in human MDA-MB-231 cells assessed as increase in multi-nuclei frequency in aberrant cell at 4 uM incubated for 24 hrs by DAPI staining based microscopic analysis; assay type: functional

In the case of CN(C)CCN(C)c1ccc(-c2nc3ccc(C(F)(F)F)cc3nc2-c2ccc(N(C)CCN(C)C)cc2)cc1, the Drug uptake [1] is reported as “Active”, the Activity (DNA) is reported as “inactive” and the Activity (4T1) is reported as “Active”. The Activity (Quadruplex DNA) was “Active” and the Activity (MDA-MB-231) was “Active”.
